In general, IC50 refers to the concentration needed to halve the response being measured. What is called EC50 is the concentration giving half of the maximal effect.

One compound from ChEMBL document CHEMBL5316350, “Novel Pyrido[2',1':2,3]imidazo[4,5-c]quinoline Derivative Selectively Poisons Leishmania donovani Bisubunit Topoisomerase 1 to Inhibit the Antimony-Resistant Leishmania Infection in Vivo” (J Med Chem, 2023) can be followed below.

Data set [1] concerns Leishmania donovani. In words: Induction of cell cycle arrest in Leishmania donovani Ag83 promastigotes assessed as decrease in accumulation of cells in S phase at 5 uM measured after 12 hrs by PI staining based flow cytometry (reference value: 18.1%). Format: functional. Further details: scale not given: the % may be the effect or the level left. For orientation: In flow cytometry, cells or beads pass a laser one at a time.

The target in data set [2] is T1, DNA topoisomerase 1 (Homo sapiens) (UniProt P11387).
T1 sequence (whole entry): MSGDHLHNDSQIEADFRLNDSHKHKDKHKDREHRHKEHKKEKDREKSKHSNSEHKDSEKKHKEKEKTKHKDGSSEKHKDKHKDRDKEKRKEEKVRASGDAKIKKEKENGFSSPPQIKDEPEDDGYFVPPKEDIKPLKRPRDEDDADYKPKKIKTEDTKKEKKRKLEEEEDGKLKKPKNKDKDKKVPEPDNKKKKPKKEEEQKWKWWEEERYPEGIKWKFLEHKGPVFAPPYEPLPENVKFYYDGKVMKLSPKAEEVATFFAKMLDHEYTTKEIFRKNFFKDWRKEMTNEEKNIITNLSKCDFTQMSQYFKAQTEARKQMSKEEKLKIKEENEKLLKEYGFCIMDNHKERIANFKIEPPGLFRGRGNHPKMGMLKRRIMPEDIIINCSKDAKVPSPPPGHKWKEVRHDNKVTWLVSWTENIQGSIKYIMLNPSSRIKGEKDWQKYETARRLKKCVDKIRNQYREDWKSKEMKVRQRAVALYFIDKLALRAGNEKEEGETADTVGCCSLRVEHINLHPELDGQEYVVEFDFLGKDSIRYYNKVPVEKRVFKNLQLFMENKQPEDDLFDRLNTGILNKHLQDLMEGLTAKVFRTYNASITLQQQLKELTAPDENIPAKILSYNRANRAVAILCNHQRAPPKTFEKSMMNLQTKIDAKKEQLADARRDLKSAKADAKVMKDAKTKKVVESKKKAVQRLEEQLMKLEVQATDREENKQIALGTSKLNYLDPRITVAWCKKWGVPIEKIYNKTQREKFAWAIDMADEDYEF
In words: Inhibition of human recombinant Top1 infected in Sf9 cells assessed as plasmid DNA relaxation upto 100 uM measured after 30 mins.

Data set [3] concerns the target T2, DNA topoisomerase I (Leishmania donovani (strain BPK282A1), UniProt E9BRC0).
T2 sequence (E9BRC0 whole entry): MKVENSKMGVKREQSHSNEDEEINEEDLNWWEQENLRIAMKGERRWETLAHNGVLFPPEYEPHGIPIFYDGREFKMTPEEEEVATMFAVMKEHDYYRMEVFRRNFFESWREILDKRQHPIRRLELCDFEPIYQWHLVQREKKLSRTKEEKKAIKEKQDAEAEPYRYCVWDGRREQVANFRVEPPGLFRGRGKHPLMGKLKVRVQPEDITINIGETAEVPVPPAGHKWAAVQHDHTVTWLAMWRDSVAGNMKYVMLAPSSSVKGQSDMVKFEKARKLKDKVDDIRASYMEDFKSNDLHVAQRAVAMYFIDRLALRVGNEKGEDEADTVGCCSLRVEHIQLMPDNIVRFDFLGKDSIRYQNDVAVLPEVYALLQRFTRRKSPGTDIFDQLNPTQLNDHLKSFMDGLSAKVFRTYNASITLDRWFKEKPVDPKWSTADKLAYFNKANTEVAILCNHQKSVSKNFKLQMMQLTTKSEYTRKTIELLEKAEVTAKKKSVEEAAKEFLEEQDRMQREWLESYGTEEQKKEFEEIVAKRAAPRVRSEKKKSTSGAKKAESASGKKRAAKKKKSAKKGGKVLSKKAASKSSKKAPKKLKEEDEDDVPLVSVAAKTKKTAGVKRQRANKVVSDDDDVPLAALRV
The data set is described as follows: Inhibition of recombinant Top1 in Leishmania donovani Ag83 whole cell extract assessed as relaxation of supercoiled pBluescript SK(+) DNA measured by agarose gel electrophoresis analysis.

The test system of data set [4] is Leishmania donovani. The data set is described as follows: Induction of cell cycle arrest in Leishmania donovani Ag83 promastigotes assessed as decrease in accumulation of cells in S phase at 5 uM measured after 6 hrs by PI staining based flow cytometry (reference value: 18.1%). Type of data set: functional. Further details: scale not given: the % may be the effect or the level left.

The subject of data set [5] is Leishmania donovani. In words: Antileishmanial activity against Leishmania donovani Ag83 promastigotes infected in BALB/c mouse assessed as reduction of amastigote burden by measuring parasite count in liver treated after 3 weeks of infection at 5 to 10 mg/kg, ip twice a week for 3 weeks by qPCR based kineto-plastid DNA. The conditions noted are these: dose 5-10 mg/kg. Format: functional, organism-based. On the technique in general: In qPCR the cycle at which signal appears reflects the starting amount.

The subject of data set [6] is Leishmania donovani. The data set is described as follows: Antileishmanial activity against Leishmania donovani Ag83 promastigotes infected in BALB/c mouse assessed as reduction of macrophage at 1 to 10 uM infection by propidium iodide staining analysis. Format: functional, organism-based. The conditions noted are these: dose 1-10 µM, time 72-96 hrs, TDE = time-dependent effect.

The nature of data set [7]: Cytotoxicity against BALB/c mouse macrophage assessed as cell viability measured after 48 hrs infection by propidium iodide staining analysis relative to control. Type of data set: toxicity, cell-based. The conditions noted are these: mouse macrophages.
For data set [8], the system named is Leishmania donovani. The data set is described as follows: Induction of apoptosis in Leishmania donovani Ag83 promastigotes assessed as increase in apoptotic genomic DNA fragmentation measured at 5 uM after 6 hrs by Annexin V-FITC/PI staining based flow cytometric analysis. Format: functional, organism-based.
Data set [9] has as its system Leishmania donovani. The data set is described as follows: Induction of apoptosis in Leishmania donovani Ag83 promastigotes assessed as early apoptotic cells measured at 5 uM after 6 hrs by Annexin V-FITC/PI staining based flow cytometric analysis (reference value: 0.00%). Format: functional.

Active and inactive are the calls of the source. The rule behind the calls is not given here.

Take `COc1cc(-c2nc3ccccc3c3nc4ccccn4c23)cc(OC)c1OC`: the Activity was 43.1% in [1], 13.6% in data set [4], “Tde” in data set [6] and 18.7% in [9]. In addition, the inhibition entry in [2] is “inactive”. Further, in data set [3], the IC50 amounted to 6.5 µM. The result in [5] and in [8] was Active. The concentration giving a half-maximal response (EC50) at 48 h in data set [7] worked out at 50.2 µM.
